For assay [1], the target named is T1, HiBit-BRG1 fusion protein (Homo sapiens, UniProt P51532).
T1 construct: expressed in transfected cells
Kind of assay: HiBiT-BRG1 cell-based degradation assay (Nano-Glo HiBiT Lytic Detection, 24 h). The note with it: HeLa cell line expressing HiBit-BRG1 and LgBit; for Dmax: read-out: BRG1 HiBit Degradation Maximum (%); for DC50: read-out: BRMG1 HiBit Degradation IC50. An outline of the steps:
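HeLa cells stably expressing HiBiT-BRG1 plus LgBit, 5000/well, treated 24 h, then lysed with Nano-Glo HiBiT lytic reagent and luminescence read. % degradation normalised between DMSO (high control) and 2 μM reference BRM/BRG1 degrader (low control).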

Assay [2] concerns the target T2, HiBit-BRM fusion protein (Homo sapiens, UniProt P51531).
T2 construct: expressed in transfected cells
Put plainly: HiBiT-BRM cell-based degradation assay (Nano-Glo HiBiT Lytic Detection, 24 h). Conditions: HeLa cell line expressing HiBiT-BRM; for DC50: read-out: BRM HiBit Degradation IC50. An outline of the steps: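 Stable HiBiT-BRM HeLa line; 24 h compound exposure, top final 30 μM, 3-fold, 10 pts in duplicate. Lytic HiBiT/LgBiT luminescence readout. % degradation vs DMSO (0%) and 2 μM known BRM/BRG1 degrader (100%).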

T1 sequence (P51532 whole entry, the tested form may be a part): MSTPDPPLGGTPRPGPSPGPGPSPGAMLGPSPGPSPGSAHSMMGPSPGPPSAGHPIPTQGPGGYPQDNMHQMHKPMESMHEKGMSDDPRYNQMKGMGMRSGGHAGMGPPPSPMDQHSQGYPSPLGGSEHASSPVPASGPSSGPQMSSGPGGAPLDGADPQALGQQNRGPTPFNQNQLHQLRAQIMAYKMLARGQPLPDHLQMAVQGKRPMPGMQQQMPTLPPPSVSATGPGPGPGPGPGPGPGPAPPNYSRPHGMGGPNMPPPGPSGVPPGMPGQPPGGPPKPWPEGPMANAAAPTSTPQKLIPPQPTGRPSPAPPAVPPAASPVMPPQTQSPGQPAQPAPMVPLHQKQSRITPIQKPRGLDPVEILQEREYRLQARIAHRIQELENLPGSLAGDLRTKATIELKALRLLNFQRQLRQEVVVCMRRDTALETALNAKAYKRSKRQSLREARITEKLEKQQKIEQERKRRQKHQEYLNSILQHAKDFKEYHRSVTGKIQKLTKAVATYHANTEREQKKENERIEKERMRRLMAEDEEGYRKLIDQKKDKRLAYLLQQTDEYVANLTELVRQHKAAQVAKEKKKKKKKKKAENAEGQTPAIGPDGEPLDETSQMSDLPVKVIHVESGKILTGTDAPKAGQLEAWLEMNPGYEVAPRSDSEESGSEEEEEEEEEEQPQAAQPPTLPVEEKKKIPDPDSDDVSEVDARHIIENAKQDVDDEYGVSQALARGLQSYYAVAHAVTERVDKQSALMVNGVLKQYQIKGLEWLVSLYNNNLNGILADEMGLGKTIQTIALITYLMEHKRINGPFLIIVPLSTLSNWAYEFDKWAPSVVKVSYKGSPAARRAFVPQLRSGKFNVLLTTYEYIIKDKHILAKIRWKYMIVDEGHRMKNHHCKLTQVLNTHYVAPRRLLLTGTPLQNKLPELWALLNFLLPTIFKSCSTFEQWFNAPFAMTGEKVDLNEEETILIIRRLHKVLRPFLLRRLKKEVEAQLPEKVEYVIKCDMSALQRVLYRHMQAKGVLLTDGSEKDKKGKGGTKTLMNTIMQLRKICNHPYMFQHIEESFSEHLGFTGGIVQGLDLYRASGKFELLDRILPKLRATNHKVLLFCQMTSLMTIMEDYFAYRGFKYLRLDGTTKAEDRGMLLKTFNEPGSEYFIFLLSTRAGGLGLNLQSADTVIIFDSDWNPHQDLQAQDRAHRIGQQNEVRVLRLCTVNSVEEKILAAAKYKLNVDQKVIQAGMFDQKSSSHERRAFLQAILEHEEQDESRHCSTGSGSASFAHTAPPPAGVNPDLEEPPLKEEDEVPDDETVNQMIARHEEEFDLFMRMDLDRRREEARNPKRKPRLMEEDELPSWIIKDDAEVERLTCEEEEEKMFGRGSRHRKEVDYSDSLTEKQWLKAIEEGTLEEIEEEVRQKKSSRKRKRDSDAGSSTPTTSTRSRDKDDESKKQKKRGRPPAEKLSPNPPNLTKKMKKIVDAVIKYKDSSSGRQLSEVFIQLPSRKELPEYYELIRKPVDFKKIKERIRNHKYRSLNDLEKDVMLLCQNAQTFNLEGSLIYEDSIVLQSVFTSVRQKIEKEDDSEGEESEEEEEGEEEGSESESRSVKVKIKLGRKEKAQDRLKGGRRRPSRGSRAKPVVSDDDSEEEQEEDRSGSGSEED
T2 sequence (P51531 whole entry, the tested form may be a part): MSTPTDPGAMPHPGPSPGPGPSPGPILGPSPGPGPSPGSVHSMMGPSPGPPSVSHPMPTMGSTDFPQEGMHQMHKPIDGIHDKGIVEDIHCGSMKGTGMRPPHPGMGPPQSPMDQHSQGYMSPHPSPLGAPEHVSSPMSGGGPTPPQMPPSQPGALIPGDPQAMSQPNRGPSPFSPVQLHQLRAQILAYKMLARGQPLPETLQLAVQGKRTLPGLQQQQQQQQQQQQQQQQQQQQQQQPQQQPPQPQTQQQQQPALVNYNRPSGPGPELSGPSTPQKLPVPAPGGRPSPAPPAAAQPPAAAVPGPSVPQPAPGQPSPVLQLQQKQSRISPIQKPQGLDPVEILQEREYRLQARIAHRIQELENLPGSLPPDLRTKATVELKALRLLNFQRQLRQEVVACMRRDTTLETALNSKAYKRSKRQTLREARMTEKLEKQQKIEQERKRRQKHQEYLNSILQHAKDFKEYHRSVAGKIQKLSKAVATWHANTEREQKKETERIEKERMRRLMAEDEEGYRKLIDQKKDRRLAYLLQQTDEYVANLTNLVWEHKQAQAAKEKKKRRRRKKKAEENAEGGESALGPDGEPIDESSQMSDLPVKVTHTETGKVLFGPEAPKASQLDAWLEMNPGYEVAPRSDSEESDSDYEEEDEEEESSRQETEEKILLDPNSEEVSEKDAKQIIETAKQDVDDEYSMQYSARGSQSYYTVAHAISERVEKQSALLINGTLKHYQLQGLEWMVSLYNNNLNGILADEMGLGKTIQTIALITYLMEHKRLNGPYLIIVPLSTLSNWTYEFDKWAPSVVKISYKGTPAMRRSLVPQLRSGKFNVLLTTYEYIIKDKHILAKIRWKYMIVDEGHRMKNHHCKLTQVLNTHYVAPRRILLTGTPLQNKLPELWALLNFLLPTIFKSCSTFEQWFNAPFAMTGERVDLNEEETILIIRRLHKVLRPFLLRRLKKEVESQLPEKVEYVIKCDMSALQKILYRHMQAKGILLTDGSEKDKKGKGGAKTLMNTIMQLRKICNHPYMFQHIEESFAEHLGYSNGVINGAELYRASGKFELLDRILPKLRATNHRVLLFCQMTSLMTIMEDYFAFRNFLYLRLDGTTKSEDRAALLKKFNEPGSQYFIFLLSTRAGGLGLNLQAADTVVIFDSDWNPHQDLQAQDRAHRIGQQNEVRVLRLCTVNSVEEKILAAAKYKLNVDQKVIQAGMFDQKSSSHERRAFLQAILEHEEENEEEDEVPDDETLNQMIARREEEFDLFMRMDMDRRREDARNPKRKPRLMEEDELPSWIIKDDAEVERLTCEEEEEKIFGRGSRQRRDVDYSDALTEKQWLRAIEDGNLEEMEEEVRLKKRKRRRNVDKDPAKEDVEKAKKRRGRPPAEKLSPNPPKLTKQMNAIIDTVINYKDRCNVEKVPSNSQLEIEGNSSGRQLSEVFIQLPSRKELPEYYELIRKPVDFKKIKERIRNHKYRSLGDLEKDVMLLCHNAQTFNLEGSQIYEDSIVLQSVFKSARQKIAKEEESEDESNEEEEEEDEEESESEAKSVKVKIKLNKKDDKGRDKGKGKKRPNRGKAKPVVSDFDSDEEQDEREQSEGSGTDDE

On to `Cc1ncsc1-c1ccc([C@H](C)NC(=O)[C@@H]2C[C@@H](O)CN2C(=O)[C@@H](c2cc(OCCN(C)C(=O)c3cc4cc(-c5ccccc5O)nnc4[nH]3)no2)C(C)C)cc1` (racemic) [Compound 242, N-(2-((5-((R)-1-((2S,4R)-4-hydroxy-2-(((S)-1-(4-(4-methylthiazol-5-yl)phenyl)ethyl)carbamoyl)pyrrolidin-1-yl)-3-methyl-1-oxobutan-2-yl)isoxazol-3-yl)oxy)ethyl)-3-(2-hydroxyphenyl)-N-methyl-7H-pyrrolo[2,3-c]pyridazine-6-carboxamide], for which the Dmax in assay [1] is below 50%. Further, in assay [2], the “BRM HiBit Degradation Maximum (%)” value is “B (“B” indicates maximum degradation ≥ 50%)” and the DC50 is above 100 nM.
Take `Cc1ncsc1-c1ccc([C@H](C)NC(=O)[C@@H]2C[C@@H](O)CN2C(=O)[C@@H](c2cc(OCCN3C[C@@H]4[C@H](C3)[C@H]4c3cc4cc(-c5ccccc5O)nnc4[nH]3)no2)C(C)C)cc1` (racemic) [Compound 308, (2S,4R)-4-hydroxy-1-((R)-2-(3-(2-((1R,5S,6R)-6-(3-(2-hydroxyphenyl)-7H-pyrrolo[2,3-c]pyridazin-6-yl)-3-azabicyclo[3.1.0]hexan-3-yl)ethoxy)isoxazol-5-yl)-3-methylbutanoyl)-N-((S)-1-(4-(4-methylthiazol-5-yl)phenyl)ethyl)pyrrolidine-2-carboxamide]: in assay [1], the Dmax is above 75% and the DC50 is above 10 nM. For the same compound, in assay [2], the “BRM HiBit Degradation Maximum (%)” value is “A (“A” indicates maximum degradation ≥ 75%)” and the DC50 is below 10 nM.
`Cc1ncsc1-c1ccc([C@H](C)NC(=O)[C@@H]2C[C@@H](O)CN2C(=O)[C@@H](c2cc(N3CCC(C(=O)N[C@@H]4CCc5[nH]c6nnc(-c7ccccc7O)cc6c5C4)CC3)no2)C(C)C)cc1` (single isomer, unassigned) [Compound 146]: in assay [1], the Dmax is above 75% and the DC50 was above 100 nM. Also, in assay [2], the “BRM HiBit Degradation Maximum (%)” value is on record as “A (“A” indicates maximum degradation ≥ 75%)” and the DC50 is above 10 nM.
Consider `Cc1ncsc1-c1ccc([C@H](C)NC(=O)[C@@H]2C[C@@H](O)CN2C(=O)[C@@H](c2cc(OCC(=O)N3CC(c4cc5cc(-c6ccccc6O)nnc5[nH]4)C3)no2)C(C)C)cc1` (racemic) [Compound 305, (2S,4R)-4-hydroxy-1-((R)-2-(3-(2-(3-(3-(2-hydroxyphenyl)-7H-pyrrolo[2,3-c]pyridazin-6-yl)azetidin-1-yl)-2-oxoethoxy)isoxazol-5-yl)-3-methylbutanoyl)-N-((S)-1-(4-(4-methylthiazol-5-yl)phenyl)ethyl)pyrrolidine-2-carboxamide], for which the Dmax in assay [1] was below 50%. Moreover, in assay [2], the “BRM HiBit Degradation Maximum (%)” value is reported as “A (“A” indicates maximum degradation ≥ 75%)” and the DC50 is above 1000 nM.
Regarding `Cc1ncsc1-c1ccc([C@H](C)NC(=O)[C@@H]2C[C@@H](O)CN2C(=O)[C@@H](c2cc(OCCN3CC[C@H](c4c(C)[nH]c5nnc(-c6ccccc6O)cc45)C3)no2)C(C)C)cc1` (single isomer, unassigned) [Compound 241], in assay [1], the Dmax is below 50%. Also, in assay [2], the “BRM HiBit Degradation Maximum (%)” value is “B (“B” indicates maximum degradation ≥ 50%)” and the DC50 was above 10 nM.
For the compound `Cc1ncsc1-c1ccc([C@H](C)NC(=O)[C@@H]2C[C@@H](O)CN2C(=O)[C@@H](c2cc(OCCN3CCC[C@H]3c3cc4cc(-c5ccccc5O)nnc4[nH]3)no2)C(C)C)cc1` (racemic) [Compound 260, (2S,4R)-4-hydroxy-1-((R)-2-(3-(2-((S)-2-(3-(2-hydroxyphenyl)-7H-pyrrolo[2,3-c]pyridazin-6-yl)pyrrolidin-1-yl)ethoxy)isoxazol-5-yl)-3-methylbutanoyl)-N-((S)-1-(4-(4-methylthiazol-5-yl)phenyl)ethyl)pyrrolidine-2-carboxamide], in assay [1], the Dmax was below 50%. For the same compound, in assay [2], the “BRM HiBit Degradation Maximum (%)” value is “B (“B” indicates maximum degradation ≥ 50%)” and the DC50 is above 10 nM.
In the same order, the values of `Cc1ncsc1-c1ccc(CNC(=O)[C@@H]2C[C@@H](O)CN2C(=O)[C@@H](NC(=O)CCCCCCCCC(=O)N2CC(c3cc4cc(-c5ccccc5O)nnc4[nH]3)C2)C(C)(C)C)cc1` [Compound 2, (2S,4R)-4-hydroxy-1-((S)-2-(10-(3-(3-(2-hydroxyphenyl)-7H-pyrrolo[2,3-c]pyridazin-6-yl)azetidin-1-yl)-10-oxodecanamido)-3,3-dimethylbutanoyl)-N-(4-(4-methylthiazol-5-yl)benzyl)pyrrolidine-2-carboxamide] are below 50%, “A (“A” indicates maximum degradation ≥ 75%)” and above 100 nM.
Consider `Cc1ncsc1-c1ccc([C@H](C)NC(=O)[C@@H]2C[C@@H](O)CN2C(=O)[C@@H](c2cc(OCCN(C)Cc3cc4cc(-c5ccccc5O)nnc4[nH]3)no2)C(C)C)cc1` (racemic) [Compound 222, (2S,4R)-4-hydroxy-1-((R)-2-(3-(2-(((3-(2-hydroxyphenyl)-7H-pyrrolo[2,3-c]pyridazin-6-yl)methyl)(methyl)amino)ethoxy)isoxazol-5-yl)-3-methylbutanoyl)-N-((S)-1-(4-(4-methylthiazol-5-yl)phenyl)ethyl)pyrrolidine-2-carboxamide], for which, in assay [1], the Dmax is below 50%. For the same compound, in assay [2], the “BRM HiBit Degradation Maximum (%)” value is listed as “B (“B” indicates maximum degradation ≥ 50%)” and the DC50 is above 10 nM.
In the same order, the values of `Cc1ncsc1-c1ccc([C@H](C)NC(=O)[C@@H]2C[C@@H](O)CN2C(=O)[C@@H](c2cc(OCCN3CC(Oc4c[nH]c5nnc(-c6ccccc6O)cc45)C3)no2)C(C)C)cc1` (racemic) [Compound 139, (2S,4R)-4-hydroxy-1-[(2R)-2-{3-[2-(3-{[3-(2-hydroxyphenyl)-7H-pyrrolo[2,3-c]pyridazin-5-yl]oxy}azetidin-1-yl)ethoxy]-1,2-oxazol-5-yl}-3-methylbutanoyl]-N-[(1S)-1-[4-(4-methyl-1,3-thiazol-5-yl)phenyl]ethyl]pyrrolidine-2-carboxamide] are below 50%, “B (“B” indicates maximum degradation ≥ 50%)” and above 100 nM.
In the same order, the values of `Cc1ncsc1-c1ccc([C@H](C)NC(=O)[C@@H]2C[C@@H](O)CN2C(=O)[C@@H](c2cc(OCCN3CCN(Cc4cc5cc(-c6ccccc6O)nnc5[nH]4)CC3)no2)C(C)C)cc1` (racemic) [Compound 208, (2S,4R)-4-hydroxy-1-((R)-2-(3-(2-(4-((3-(2-hydroxyphenyl)-7H-pyrrolo[2,3-c]pyridazin-6-yl)methyl)piperazin-1-yl)ethoxy)isoxazol-5-yl)-3-methylbutanoyl)-N-((S)-1-(4-(4-methylthiazol-5-yl)phenyl)ethyl)pyrrolidine-2-carboxamide] are below 50%, “A (“A” indicates maximum degradation ≥ 75%)” and above 10 nM.
Turning to `Cc1ncsc1-c1ccc(CNC(=O)[C@@H]2C[C@@H](O)CN2C(=O)[C@@H](NC(=O)CCCCCNCCC(=O)N2CC(c3c[nH]c4nnc(-c5ccccc5O)cc34)C2)C(C)(C)C)cc1` (racemic) [Compound 57, (2S,4R)-4-hydroxy-1-((S)-2-(6-((3-(3-(3-(2-hydroxyphenyl)-7H-pyrrolo[2,3-c]pyridazin-5-yl)azetidin-1-yl)-3-oxopropyl)amino)hexanamido)-3,3-dimethylbutanoyl)-N-(4-(4-methylthiazol-5-yl)benzyl)pyrrolidine-2-carboxamide], the Dmax in assay [1] is below 50%. Besides, the “BRM HiBit Degradation Maximum (%)” value in assay [2] is “C (“C” indicates maximum degradation < 50%)”.
For the compound `Cc1ncsc1-c1ccc([C@H](C)NC(=O)[C@@H]2C[C@@H](O)CN2C(=O)[C@@H](c2cc(OCCNCCC(=O)N3CC(c4c[nH]c5nnc(-c6ccccc6O)cc45)C3)no2)C(C)C)cc1` (racemic) [Compound 230, (2S,4R)-4-hydroxy-1-((R)-2-(3-(2-((3-(3-(3-(2-hydroxyphenyl)-7H-pyrrolo[2,3-c]pyridazin-5-yl)azetidin-1-yl)-3-oxopropyl)amino)ethoxy)isoxazol-5-yl)-3-methylbutanoyl)-N-((S)-1-(4-(4-methylthiazol-5-yl)phenyl)ethyl)pyrrolidine-2-carboxamide], the Dmax in assay [1] was below 50%. In assay [2], the “BRM HiBit Degradation Maximum (%)” value is listed as “B (“B” indicates maximum degradation ≥ 50%)” and the DC50 is above 1000 nM.
Regarding `Cc1ncsc1-c1ccc([C@H](C)NC(=O)[C@@H]2C[C@@H](O)CN2C(=O)[C@@H](c2cc(OCCN3C[C@@H]4[C@H](C3)[C@H]4c3[nH]c4nnc(-c5cccc(F)c5O)cc4c3C)no2)C(C)C)cc1` (racemic) [Compound 126, (2S,4R)-1-((R)-2-(3-(2-((1R,5S,6R)-6-(3-(3-fluoro-2-hydroxyphenyl)-5-methyl-7H-pyrrolo[2,3-c]pyridazin-6-yl)-3-azabicyclo[3.1.0]hexan-3-yl)ethoxy)isoxazol-5-yl)-3-methylbutanoyl)-4-hydroxy-N-((S)-1-(4-(4-methylthiazol-5-yl)phenyl)ethyl)pyrrolidine-2-carboxamide], in assay [1], the Dmax is above 50% and the DC50 is above 100 nM. Moreover, in assay [2], the “BRM HiBit Degradation Maximum (%)” value was “A (“A” indicates maximum degradation ≥ 75%)” and the DC50 is above 10 nM.

(Values after US20240024488A1, “COMPOUNDS AND USES THEREOF” (Foghorn Therapeutics Inc., priority 2020, published 2024).)
